From article PMC5653977 (EMBO Molecular Medicine, 2017)
Where a name gives a salt, the structure may show the parent alone. Read-outs that look alike come from different tables or passages of the source. *1 amine or outer side, *2 acyl side, *3 side chain or, on linkers, in order; H or OH if unused. Where a SMILES comes first, the peptide text is derived from it. Bridges are numbered along the chain shown (N, C = ends). Roman numbers before positions name the chains, in order. [ ]: non-standard residue; d: D form. Actinocin(9to1) = Cc1c2oc3c(C)ccc(C(=O)[*:1])c3nc-2c(C(=O)[*:2])c(N)c1=O; NMeV = CN[C@H](C(=O)O)C(C)C; Sar = CNCC(=O)O

Test system: NRG1-ERBB4 signaling
Assay: Nrg1-ERBB4-PIK3R1 split TEV co-culture compound screen of the NIH Clinical Collection
Type: cell-based, human
[1] = NIH Clinical Collection NCC-003 raw data, compounds ranked by Z-score, 'flagged' given instead of a Z-score
[2] = compounds at 10 μM, 24 h, PC12 split TEV assay cells co-cultured with Nrg1-expressing PC12 cells, analysed with cellHTS2
[3] = compound screen of the NIH Clinical Collection, sheet raw data NCC-003, compounds ranked by Z-score

SMILES	Z-SCORE [2]	Z-SCORE [3]	also measured
CC1=C(C(=O)O)N2C(=O)[C@@H](NC(=O)[C@H](N)c3ccccc3)[C@H]2SC1 [Cephalexin monohydrate]			Z-SCORE [1]: -1.51
O=C(O)COCCN1CCN(C(c2ccccc2)c2ccc(Cl)cc2)CC1 (stereo not drawn) [Cetirizine, reference compound]	0.89		
O=C(N[C@H](CO)[C@H](O)c1ccc([N+](=O)[O-])cc1)C(Cl)Cl [Chloramphenicol, reference compound]	0.74		
NS(=O)(=O)c1cc2c(cc1Cl)N=CNS2(=O)=O [Chlorothiazide, reference compound]	0.42		
Oc1c(Cl)cc(Cl)c2cccnc12 [Chloroxine, reference compound]	flagged		
CN(C)CCC(c1ccc(Cl)cc1)c1ccccn1 (stereo not drawn) [Chlorpheniramine]		-0.07	
CCCNC(=O)NS(=O)(=O)c1ccc(Cl)cc1 [Chlorpropamide, reference compound]	-0.07		
NS(=O)(=O)c1cc(C2(O)NC(=O)c3ccccc32)ccc1Cl (stereo not drawn) [Chlorthalidone, reference compound]	0.87		
CN/C(=N/CCSCc1nc[nH]c1C)NC#N [Cimetidine, reference compound]	-0.45		
CN(C)CCCSc1ccccc1NC(=O)/C=C/c1ccccc1 [Cinanserin]		-0.77	
COc1cc(N)c(Cl)cc1C(=O)NC1CCN(CCCOc2ccc(F)cc2)CC1OC (stereo not drawn) [Cisapride]		-0.15	
CN(C)CCCC1(c2ccc(F)cc2)OCc2cc(C#N)ccc21 (stereo not drawn) [Citalopram hydrobromide]		-0.45	
CN(C)CCCC1(c2ccc(F)cc2)OCc2cc(C#N)ccc21 (stereo not drawn) [Citalopram, reference compound]	-1.5		
NC(=NCc1ccc(Cl)cc1)SCCCc1cnc[nH]1 [Clobenpropit]		-0.9	
CCN(CC)CCOc1ccc(C(=C(Cl)c2ccccc2)c2ccccc2)cc1 [Clomid, reference compound]	-1.33		
CN1CCN(C2=Nc3cc(Cl)ccc3Nc3ccccc32)CC1 [Clozapine, reference compound]	-0.31		
CN1[C@@H]2CC[C@H]1C[C@@H](OC(c1ccccc1)c1ccccc1)C2.CS(=O)(=O)O [Cogentin Mesylate, reference compound]	-2.36		
O=C(O)c1cc(=O)c2c(OCC(O)COc3cccc4oc(C(=O)O)cc(=O)c34)cccc2o1 [Cromolyn Sodium, reference compound]	1.88		
CN1CCC(=C2c3ccccc3C=Cc3ccccc32)CC1 [Cyproheptadine hydrochloride]		0.2	
O=P1(N(CCCl)CCCl)NCCCO1 (stereo not drawn) [Cytoxan, reference compound]			Z-SCORE: -0.97
N[C@@H]1CON=C1O [D-CYCLOSERINE, reference compound]	-0.66	2.86	
Cc1c2oc3c(C)ccc(C(=O)N[C@@H]4C(=O)N[C@H](C(C)C)C(=O)N5CCC[C@H]5C(=O)N(C)CC(=O)N(C)[C@@H](C(C)C)C(=O)O[C@@H]4C)c3nc-2c(C(=O)N[C@@H]2C(=O)N[C@H](C(C)C)C(=O)N3CCC[C@H]3C(=O)N(C)CC(=O)N(C)[C@@H](C(C)C)C(=O)O[C@@H]2C)c(N)c1=O [DACTINOMYCIN] (I: T[dV]P[Sar][NMeV] / II: T[dV]P[Sar][NMeV]; ester I:1-I:C, II:1-II:C; linker I:N-II:N via Actinocin(9to1))			Z-SCORE [1]: flagged

SMILES	Z-SCORE [2]	Z-SCORE [3]	also measured
C#C[C@]1(O)CC[C@H]2[C@@H]3CCC4=Cc5oncc5C[C@]4(C)[C@H]3CC[C@@]21C [DANAZOL, reference compound]	-0.3		
COc1cccc2c1C(=O)c1c(O)c3c(c(O)c1C2=O)C[C@@](O)(C(C)=O)C[C@@H]3O[C@H]1C[C@H](N)[C@H](O)[C@H](C)O1 [DAUNORUBICIN HYDROCHLORIDE, reference compound]	flagged		
C[C@H](CCC(=O)O)[C@H]1CC[C@H]2[C@@H]3C(=O)C[C@@H]4CC(=O)CC[C@]4(C)[C@H]3CC(=O)[C@]12C [DEHYDROCHOLIC ACID]		-0.51	
C[C@]12CC[C@H](O)CC1=CC[C@@H]1[C@@H]2CC[C@]2(C)C(=O)CC[C@@H]12 [DEHYDROEPIANDROSTERONE]		0.4	
CC(=O)OCC(=O)[C@@]1(O)CC[C@H]2[C@@H]3C[C@H](C)C4=CC(=O)C=C[C@]4(C)[C@H]3[C@@H](O)C[C@@]21C [DEPO-MEDROL, reference compound]	0.97		
C#CCN(C)[C@H](C)Cc1ccccc1.Cl [DEPRENALIN, reference compound]	0.31		
C[C@@H]1C[C@H]2[C@@H]3CCC4=CC(=O)C=C[C@]4(C)[C@@]3(F)[C@@H](O)C[C@]2(C)[C@H]1C(=O)CO [DESOXIMETASONE]		-0.5	
CN(C)CC[C@@H](c1ccc(Br)cc1)c1ccccn1 [DEXBROMPHENIRAMINE MALEATE]		-0.74	
CN(C)CC[C@@H](c1ccc(Cl)cc1)c1ccccn1 [DEXCHLORPHENIRAMINE MALEATE]		-0.67	
CC1=NS(=O)(=O)c2cc(Cl)ccc2N1 [DIAZOXIDE]		2.34	
O=C(O)C(Cl)Cl [DICHLOROACETIC ACID]		1.9	
Cc1onc(-c2c(Cl)cccc2Cl)c1C(=O)N[C@@H]1C(=O)N2[C@@H]1SC(C)(C)[C@@H]2C(=O)O [DICLOXACILLIN SODIUM, reference compound]	0.28		
C[C@H]1O[C@@H](O[C@H]2[C@@H](O)C[C@H](O[C@H]3[C@@H](O)C[C@H](O[C@H]4CC[C@@]5(C)[C@H](CC[C@@H]6[C@@H]5C[C@@H](O)[C@]5(C)[C@@H](C7=CC(=O)OC7)CC[C@]65O)C4)O[C@@H]3C)O[C@@H]2C)C[C@H](O)[C@@H]1O [DIGOXIN, reference compound]	-1.73		
CN(C)CCOC(c1ccccc1)c1ccccc1 [DIPHENHYDRAMINE HYDROCHLORIDE]		1.01	
CCOC(=O)C1(c2ccccc2)CCN(CCC(C#N)(c2ccccc2)c2ccccc2)CC1 [DIPHENOXYLATE]		-0.45	
OCCN(CCO)c1nc(N2CCCCC2)c2nc(N(CCO)CCO)nc(N3CCCCC3)c2n1 [DIPYRIDAMOLE, reference compound]	-1.46		
CC(=O)O[C@@]12CO[C@@H]1C[C@H](O)[C@@]1(C)C(=O)[C@H](O)C3=C(C)[C@@H](OC(=O)[C@H](O)[C@@H](NC(=O)OC(C)(C)C)c4ccccc4)C[C@@](O)([C@@H](OC(=O)c4ccccc4)[C@H]21)C3(C)C [DOCETAXEL]			Z-SCORE [1]: -1.13
CN(CCOc1ccc(NS(C)(=O)=O)cc1)CCc1ccc(NS(C)(=O)=O)cc1 [DOFETILIDE]		0	
CS(=O)(=O)O.O=C(O[C@H]1C[C@H]2CC3C[C@@H](C1)N2CC3=O)c1c[nH]c2ccccc12 [DOLASETRON MESYLATE]		0.23	
CCN1CC(CCN2CCOCC2)C(c2ccccc2)(c2ccccc2)C1=O.Cl (stereo not drawn) [DOXAPRAM HYDROCHLORIDE]		-0.46	
CN(C)CCC=C1c2ccccc2COc2ccccc21 [DOXEPIN HYDROCHLORIDE, reference compound]	1.31		
COc1cccc2c1C(=O)c1c(O)c3c(c(O)c1C2=O)C[C@@](O)(C(=O)CO)C[C@@H]3O[C@H]1C[C@H](N)[C@H](O)[C@H](C)O1 [DOXORUBICIN HYDROCHLORIDE]			Z-SCORE [1]: flagged

SMILES	Z-SCORE [2]	Z-SCORE [3]	also measured
C[C@H]1c2cccc(O)c2C(=O)C2=C(O)[C@]3(O)C(=O)C(C(N)=O)=C(O)[C@@H](N(C)C)[C@@H]3[C@@H](O)[C@@H]21 [DOXYCYCLINE, reference compound]	-0.93		
O=C(CCCN1CC=C(n2c(=O)[nH]c3ccccc32)CC1)c1ccc(F)cc1 [DROPERIDOL]		-0.96	
CNCC[C@H](Oc1cccc2ccccc12)c1cccs1 [DULOXETINE HCl]			Z-SCORE: -0.22
O=C1CN(/N=C/c2ccc(-c3ccc([N+](=O)[O-])cc3)o2)C(=O)[N-]1.[Na+] [Dantrolene sodium salt, reference compound]	0.78		
Nc1ccc(S(=O)(=O)c2ccc(N)cc2)cc1 [Dapsone, reference compound]	-0.6		
CN(C)[C@@H]1C(O)=C(C(N)=O)C(=O)[C@@]2(O)C(O)=C3C(=O)c4c(O)ccc(Cl)c4[C@@H](O)[C@H]3C[C@@H]12 [Demeclocycline, reference compound]	0.1		
C[C@@H]1C[C@H]2[C@@H]3CCC4=CC(=O)C=C[C@]4(C)[C@@]3(F)[C@@H](O)C[C@]2(C)[C@@]1(O)C(=O)CO [Dexamethasone, reference compound]	0.88		
CN1C(=O)CN=C(c2ccccc2)c2cc(Cl)ccc21 [Diazepam]			Z-SCORE: -1.79
CC(COc1ccccc1)N(CCCl)Cc1ccccc1 (stereo not drawn) [Dibenzyline, reference compound]	-1.18		
CCN(CC)CCOC(=O)C1(C2CCCCC2)CCCCC1 [Dicyclomine hydrochloride, reference compound]	-2.03		
O=C(O)c1cc(-c2ccc(F)cc2F)ccc1O [Diflunisal, reference compound]	-0.6		
O=C1NC(=O)C(c2ccccc2)(c2ccccc2)N1 [Dilantin, reference compound]	0.95		
Cc1ccccc1C(OCCN(C)C)c1ccccc1 (stereo not drawn) [Disipal, reference compound]	0.42		
COc1cc2c(cc1OC)C(=O)C(CC1CCN(Cc3ccccc3)CC1)C2 (stereo not drawn) [Donepezil]		0	
COc1cc2nc(N3CCN(C(=O)C4COc5ccccc5O4)CC3)nc(N)c2cc1OC (stereo not drawn) [Doxazosin, reference compound]	0.51		
CN(C)CCC=C1c2ccccc2COc2ccccc21 [Doxepin]		2.16	
CN(C)CCOC(C)(c1ccccc1)c1ccccn1.O=C(O)CCC(=O)O (stereo not drawn) [Doxylamine succinate salt]		0.36	
CNCC[C@H](Oc1cccc2ccccc12)c1cccs1 [Duloxetine]			Z-SCORE: -0.82
Cc1cccc(CN2CCN(C(c3ccccc3)c3ccc(Cl)cc3)CC2)c1.Cl (stereo not drawn) [Duremesin, reference compound]	-0.76		
CC(COc1ccccc1)NC(C)C(O)c1ccc(O)cc1 (stereo not drawn) [Duvadilan, reference compound]	-1.36		
O=c1c2ccccc2[se]n1-c1ccccc1 [EBSELEN]		-0.25	
